In ChEMBL document CHEMBL1201862, “PubChem BioAssay data set” (2004):
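Test compounds were applied to cells in 96-well plates for 48 hours at 5 doses. GI50 is the concentration that inhibits growth by half.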 Active and inactive are the calls of the source. No stated cut-off is given here; in the data, active = GI50 up to about 1.1 µM and inactive = higher.

What was measured:
Assay in all cases: inhibition of tumour cell growth, NCI panel, 48 h
MOLT-4 = system: MOLT-4
SNB-75 = system: SNB-75
MDA-MB-231 = system: MDA-MB-231
HL-60 = system: HL-60
BT-549 = system: BT-549
HT-29 = system: HT-29
MDA-MB-435 = system: MDA-MB-435
HCT-116 = system: HCT-116
NCI-H226 = system: NCI-H226
SF-295 = system: SF-295
CCRF-CEM = system: CCRF-CEM
MDA-N = system: MDA-N
NCI-H460 = system: NCI-H460
UACC-257 = system: UACC-257
OVCAR-3 = system: OVCAR-3
A498 = system: A498
OVCAR-5 = system: OVCAR-5
COLO 205 = system: COLO 205
Hs-578T = system: Hs-578T
SK-MEL-5 = system: SK-MEL-5
K562 = system: K562
TK-10 = system: TK-10
SNB-19 = system: SNB-19
LOX IMVI = system: LOX IMVI
A549 = system: A549
OVCAR-4 = system: OVCAR-4
HOP-62 = system: HOP-62
SW-620 = system: SW-620
HOP-92 = system: HOP-92
U-251 = system: U-251
NCI/ADR-RES = system: NCI/ADR-RES
HCT-15 = system: HCT-15
SN12C = system: SN12C
NCI-H522 = system: NCI-H522
M14 = system: M14
DU-145 = system: DU-145
CAKI-1 = system: CAKI-1
PC-3 = system: PC-3
NCI-H23 = system: NCI-H23
SK-MEL-2 = system: SK-MEL-2
OVCAR-8 = system: OVCAR-8
KM12 = system: KM12
SK-MEL-28 = system: SK-MEL-28
MCF7 = system: MCF7
SF-268 = system: SF-268
ACHN = system: ACHN
EKVX = system: EKVX
786-0 = system: 786-0
T47D = system: T47D
UACC-62 = system: UACC-62
RPMI-8226 = system: RPMI-8226
RXF 393 = system: RXF 393
UO-31 = system: UO-31
IGROV-1 = system: IGROV-1
HCC 2998 = system: HCC 2998
SK-OV-3 = system: SK-OV-3
Malme-3M = system: Malme-3M
SF-539 = system: SF-539

## OCC(O)CNc1ncnc2ccccc12 (centres undefined)
MOLT-4
  GI50: > 100 µM (inactive)
SNB-75
  GI50: > 100 µM (inactive)
MDA-MB-231
  GI50: > 100 µM (inactive)
HL-60
  GI50: > 100 µM (inactive)
BT-549
  GI50: > 100 µM (inactive)
HT-29
  GI50: > 100 µM (inactive)
MDA-MB-435
  GI50: > 100 µM (inactive)
HCT-116
  GI50: > 100 µM (inactive)
NCI-H226
  GI50: > 100 µM (inactive)
SF-295
  GI50: > 100 µM (inactive)
CCRF-CEM
  GI50: > 100 µM (inactive)
MDA-N
  GI50: > 100 µM (inactive)
NCI-H460
  GI50: > 100 µM (inactive)
UACC-257
  GI50: > 100 µM (inactive)
OVCAR-3
  GI50: > 100 µM (inactive)
A498
  GI50: > 100 µM (inactive)
OVCAR-5
  GI50: > 100 µM (inactive)
COLO 205
  GI50: > 100 µM (inactive)
Hs-578T
  GI50: > 100 µM (inactive)
SK-MEL-5
  GI50: > 100 µM (inactive)
K562
  GI50: > 100 µM (inactive)
TK-10
  GI50: > 100 µM (inactive)
SNB-19
  GI50: > 100 µM (inactive)
LOX IMVI
  GI50: > 100 µM (inactive)
A549
  GI50: > 100 µM (inactive)
OVCAR-4
  GI50: > 100 µM (inactive)
HOP-62
  GI50: > 100 µM (inactive)
SW-620
  GI50: > 100 µM (inactive)
HOP-92
  GI50: > 100 µM (inactive)
U-251
  GI50: > 100 µM (inactive)
NCI/ADR-RES
  GI50: > 100 µM (inactive)
HCT-15
  GI50: > 100 µM
SN12C
  GI50: > 100 µM (inactive)
NCI-H522
  GI50: > 100 µM (inactive)
M14
  GI50: > 100 µM (inactive)
DU-145
  GI50: > 100 µM (inactive)
CAKI-1
  GI50: > 100 µM (inactive)
PC-3
  GI50: > 100 µM (inactive)
NCI-H23
  GI50: > 100 µM (inactive)
SK-MEL-2
  GI50: > 100 µM (inactive)
OVCAR-8
  GI50: > 100 µM (inactive)
KM12
  GI50: > 100 µM (inactive)
SK-MEL-28
  GI50: > 100 µM (inactive)
MCF7
  GI50: > 100 µM (inactive)
SF-268
  GI50: > 100 µM (inactive)
ACHN
  GI50: > 100 µM (inactive)
EKVX
  GI50: > 100 µM (inactive)
786-0
  GI50: > 100 µM (inactive)
T47D
  GI50: > 100 µM (inactive)
UACC-62
  GI50: > 100 µM (inactive)
RPMI-8226
  GI50: > 100 µM (inactive)
RXF 393
  GI50: > 100 µM (inactive)
UO-31
  GI50: > 100 µM (inactive)
IGROV-1
  GI50: > 100 µM (inactive)
HCC 2998
  GI50: > 100 µM (inactive)
SK-OV-3
  GI50: > 100 µM (inactive)
Malme-3M
  GI50: > 100 µM (inactive)

## COc1cc(C(=O)Nc2c3ccccc3nc3ccccc23)cc(OC)c1OC
MOLT-4
  GI50: 23.2 µM (inactive)
SNB-75
  GI50: 0.885 µM (active)
MDA-MB-231
  GI50: > 91.8 µM (inactive)
HL-60
  GI50: 3.64 µM (inactive)
BT-549
  GI50: > 100 µM (inactive)
HT-29
  GI50: > 100 µM (inactive)
MDA-MB-435
  GI50: > 74.5 µM (inactive)
HCT-116
  GI50: > 67.1 µM (inactive)
NCI-H226
  GI50: > 100 µM (inactive)
SF-295
  GI50: 35.6 µM (inactive)
CCRF-CEM
  GI50: 20.5 µM (inactive)
MDA-N
  GI50: 30 µM (inactive)
NCI-H460
  GI50: > 70.8 µM (inactive)
UACC-257
  GI50: > 100 µM (inactive)
OVCAR-3
  GI50: 98.6 µM (inactive)
OVCAR-5
  GI50: > 100 µM (inactive)
COLO 205
  GI50: > 100 µM (inactive)
Hs-578T
  GI50: > 100 µM (inactive)
SK-MEL-5
  GI50: > 100 µM (inactive)
K562
  GI50: > 54.3 µM (inactive)
TK-10
  GI50: > 100 µM (inactive)
SNB-19
  GI50: > 95.1 µM (inactive)
LOX IMVI
  GI50: > 100 µM (inactive)
A549
  GI50: > 100 µM (inactive)
OVCAR-4
  GI50: > 100 µM (inactive)
HOP-62
  GI50: > 36.3 µM (inactive)
SW-620
  GI50: > 100 µM (inactive)
HOP-92
  GI50: 50.1 µM (inactive)
U-251
  GI50: > 100 µM (inactive)
NCI/ADR-RES
  GI50: > 93.5 µM (inactive)
HCT-15
  GI50: > 100 µM
SN12C
  GI50: > 100 µM (inactive)
NCI-H522
  GI50: 42 µM (inactive)
M14
  GI50: > 53.6 µM (inactive)
DU-145
  GI50: > 100 µM (inactive)
CAKI-1
  GI50: > 22.1 µM (inactive)
PC-3
  GI50: > 100 µM (inactive)
NCI-H23
  GI50: > 100 µM (inactive)
SK-MEL-2
  GI50: > 100 µM (inactive)
OVCAR-8
  GI50: > 59.7 µM (inactive)
KM12
  GI50: > 100 µM (inactive)
SK-MEL-28
  GI50: > 100 µM (inactive)
SF-539
  GI50: > 100 µM (inactive)
MCF7
  GI50: > 100 µM (inactive)
SF-268
  GI50: 28.9 µM (inactive)
ACHN
  GI50: > 50.1 µM (inactive)
EKVX
  GI50: > 59 µM (inactive)
786-0
  GI50: > 100 µM (inactive)
T47D
  GI50: > 100 µM (inactive)
UACC-62
  GI50: > 34.7 µM (inactive)
RPMI-8226
  GI50: > 100 µM (inactive)
RXF 393
  GI50: 14.2 µM (inactive)
UO-31
  GI50: 40.3 µM (inactive)
IGROV-1
  GI50: > 100 µM (inactive)
HCC 2998
  GI50: > 100 µM (inactive)
SK-OV-3
  GI50: > 100 µM (inactive)
Malme-3M
  GI50: > 78.3 µM (inactive)
